Laboratory results: article PMC5608804, “Stepwise Evolution Improves Identification of Diverse Peptides Binding to a Protein Target” (Scientific Reports, 2017)

Molecular target: T1, streptavidin (Streptomyces avidinii, UniProt P22629)
T1 construct: purchased GE Healthcare (Little Chalfont, UK)
Experiment: Cy5-streptavidin binding on HotSpot discovery array, 5-mer L-peptide library
Settings: 5-mer L-peptide library array, Cy5-streptavidin; from average of three arrays
Description: To identify hotspot sequences that bind to streptavidin (SA), we bound Cy5-SA to an array library of 2,476,099 5-mer L-peptides synthesized with 19 of 20 natural amino acids (excluding cysteine). The fluorescence signal intensity was aggregated across three independently synthesized arrays; then the 2,047 peptides with a signal-to-background ratio (S/B) >4 were selected. The data was further filtered to select 1,100 peptides for which signal intensities were highly correlated on all 3 arrays (the percentage of mean deviation to mean was <10%, see Supplementary dataset Table 2A). Most selected sequences (1,019 of 1,100) contained HP, PQ, or PM sequences: their presence would be expected in the well-known HPQ and HPM streptavidin binders[13]–[18].
The comprehensive peptide library included 2,476,099 5-mer peptides synthesized in a single copy with 19 of 20 L- or D-amino acids (excluding cysteine). Libraries were flanked on both N- and C-termini by linkers of 1 or 3 amino acids using a 3:1 glycine-serine mixture.
Cy5™-streptavidin (Cy5-SA) was purchased from GE Healthcare (Little Chalfont, UK). Freshly deprotected arrays were used in each experiment. Streptavidin binding to all arrays was performed with 0.5 µg/ml Cy5-SA either in binding buffer containing 10 mM Tris-HCl (pH 7.4), 1% alkali-soluble casein (EMD Millipore), 0.05% Tween-20 or in 10 mM Tris-HCl (pH 7.4), 4% BSA (Roche, Basel, Switzerland), 0.05% Tween-20 in a 30 mL PAP Jar container (Evergreen Scientific, Vernon, CA) overnight at 4° C. After incubation, arrays were washed in 20 mM Tris-HCl (pH 7.8), 0.2 M NaCl, 1% SDS or 1X TBS (pH 7.4) for 30 sec followed by a 1 min wash in water, and then dried by spinning in a microcentrifuge equipped with an array holder.
Cy5 fluorescence intensity of the arrays was measured with an MS200 scanner (Roche NimbleGen, Madison, WI) at resolution 2 µm, wavelength 635 nm, gain 25%, and laser intensity 100%. Cy5 signal intensities were extracted using Image Extraction Software (Roche NimbleGen). Data pre-processing, normalization, and statistical tests were performed using the language R. Data visualization and analysis was performed with the Spotfire 6.5.0 (Tibco, Boston, MA) software platform. Distance analysis and principle component analysis of distance matrices were performed with the R package PEPLIB[19].

T1 sequence (P22629 25-183): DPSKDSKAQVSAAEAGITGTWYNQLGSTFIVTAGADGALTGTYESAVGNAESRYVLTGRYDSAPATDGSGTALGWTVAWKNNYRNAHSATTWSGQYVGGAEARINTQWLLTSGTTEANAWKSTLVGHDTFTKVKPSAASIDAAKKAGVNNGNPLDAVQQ

Substance	S/B (signal to background ratio)
HPQIG	31.0
LGQFH [L-amino acid 5-mer array peptide]	21.5
IYHPQ	169.4
FQHPQ	161.2
WHPQI	41.5
HPQNI	48.9
WQHPQ	199.1
SSHPM	50.5
PIHPM	24.8
NKHPM	20.7
WRHPM	120.0
THPQN	136.1
APHPQ	142.8
KMHPM	22.0
LQHPQ	163.6
KYHPQ	140.2
YHPQG	153.3
HHPMS	40.6
GGHPQ	124.2
HPQYA	20.2
FHPQT	34.8

Substance	S/B (signal to background ratio)
NHPQQ	42.3
EEHPQ	27.3
YTHPQ	174.6
TNHPM	57.8
TGHPQ	128.8
QQHPM	43.3
AHPQG	120.5
HPQQN	23.0
FKHPQ	123.2
IHPQQ	32.5
TNHPQ	135.8
FHPQY	56.4
TAHPQ	120.0
HPQFG	141.0
RFHPQ	161.9
RTHPM	49.0
SHPQY	47.6
ASHPQ	130.1
RHPQQ	43.6
WLHPQ	190.9
FDHPQ	121.8

Substance	S/B (signal to background ratio)
QHPQN	143.0
PQHPQ	136.1
IAHPM	46.1
EGHPM	22.4
YHPQY	49.3
EHPQF	53.2
RHPQY	41.5
DHPQS	49.1
MHPMV	20.7
LHHPQ	188.8
MAHPQ	140.8
GQHPM	43.1
MGHPQ	175.3
VIHPM	20.7
FRHPQ	211.5
VKHPM	19.5
IFHPQ	166.8
TEHPQ	57.0
WPHPQ	191.6
VWHPQ	171.7
DHHPM	32.9

Substance	S/B (signal to background ratio)
GMHPQ	126.3
MPHPQ	180.4
RDHPQ	132.4
SSHPQ	134.8
FYHPQ	202.7
KPHPM	21.9
LWHPQ	177.2
DHPMG	29.8
LSHPQ	156.2
RLHPM	33.8
AVHPM	23.8
QHPQM	40.0
HHPQA	145.4
VHHPQ	141.1
LGEYH [L-amino acid 5-mer array peptide]	21.3
MYHPQ	182.6
RRHPM	31.6
HMHPQ	133.8
HPMAP	37.9
RNHPM	54.6

Same assay, conditions: 5-mer L-peptide library array, Cy5-streptavidin; from the average of three arrays

Substance	S/B (signal to background ratio)
WHPMN	67.3
KIHPQ	60.4
QDHPQ	81.1
KAHPQ	77.0
WPHPM	95.9
KSHPQ	80.0
HPQVA	67.2
YPHPM	98.4
PHPQV	97.2
YHPMA	80.6
TVHPQ	96.5
QHPQV	84.6
HPQFA	113.5
AYHPM	66.7
LHPQN	105.2
SHPQV	98.7

Substance	S/B (signal to background ratio)
LLHPQ	105.6
THPQV	88.9
NHPQF	99.9
YDHPM	61.8
FYHPM	99.8
KPHPQ	117.2
HPQAP	82.5
RHPQV	94.3
MHPMA	62.7
KTHPQ	86.3
YHPQM	77.9
LDHPQ	89.3
IFHPM	60.0
HPQNA	108.8
HPQGA	92.1
KGHPQ	65.1

Same assay, conditions: 5-mer L-peptide library, from the average of three arrays

Substance	S/B (signal to background ratio)
HPMQS	4.9
KHPMH	5.1
NHPQL	4.1
NWDQV [L-amino acid 5-mer array peptide]	4.6
HPRWM	4.5
RHPMT	5.1
PLPDD [L-amino acid 5-mer array peptide]	4.9
HPWRN	4.7
WDAWE [L-amino acid 5-mer array peptide]	4.0
GHPMW	4.4
HPRQF	4.3
KHPMM	4.9
WHMPQ	4.6
HPQYL	4.7
YHPPQ	4.7
HPMRA	4.8
HPAFQ	4.5
NWEAI [L-amino acid 5-mer array peptide]	4.1
GHPMK	4.0
FFMMF [L-amino acid 5-mer array peptide]	4.3
EHPMY	4.5
HPMMF	5.1
WHKPQ	4.7

Same assay, conditions: average of three arrays, L-peptide 5-mer library

Substance	S/B (signal to background ratio)
LGQFH [L-amino acid 5-mer array peptide]	21.5
NWDQV [L-amino acid 5-mer array peptide]	4.6
PSWAH [L-amino acid 5-mer array peptide]	7.3
PLPDD [L-amino acid 5-mer array peptide]	4.9
WDAWE [L-amino acid 5-mer array peptide]	4.0
LGRFH [L-amino acid 5-mer array peptide]	8.7
LGGYH [L-amino acid 5-mer array peptide]	6.1
NWEAI [L-amino acid 5-mer array peptide]	4.1
FFMMF [L-amino acid 5-mer array peptide]	4.3
LGEYH [L-amino acid 5-mer array peptide]	21.3

Same assay, conditions: signal to background ratio; 5-mer L-peptide library array, Cy5-streptavidin

Substance	S/B
HPMRS	7.0
AHPMY	7.7
KHPMN	5.9
AHPQI	15.7
KHPMY	6.0
EIHPM	9.9
HPQWA	8.4
HPMAQ	7.2
HPMFW	6.5
ESHPM	17.2
PSWAH [L-amino acid 5-mer array peptide]	7.3
EAHPM	16.5
HPMGK	5.3
PQPDW	5.2
HPQQW	16.8
AHPQK	12.1
LGRFH [L-amino acid 5-mer array peptide]	8.7
LGGYH [L-amino acid 5-mer array peptide]	6.1
HPQMY	11.1
YHPQL	6.4
HPMYF	12.1
LHPMY	7.0
KHPMV	6.9
HPQYD	8.0
HPVPP	12.4
PHPMY	12.1
HPMFV	7.5
DKHPM	18.2
HPQRF	7.3
THPMR	8.7
